The text below walks through data of PMC7685627, “In vitro investigation of metabolic fate of α-mangostin and gartanin via skin permeation by LC-MS/MS and in silico evaluation of the metabolites by ADMET predictor™” (BMC Complementary Medicine and Therapies, 2020).

In data set [1] the test system is HEKn cells. The data set can be described thus: Metabolites during permeation across HEKn cell monolayer by LC-MS/MS. The conditions noted are these: positive scan mode. The class given is in vitro ADME, human. As to the method:
Human epidermal keratinocyte (neonatal) (HEKn) (InvitrogenTM, Cat# C-001-5C Lot#1654391, Oregon, USA) cells were grown in T-25 flask at 37 °C in an atmosphere of 5% CO2. The adherent keratinocytes were cultured in low calcium (0.09 mM), serum-free, Epilife® medium, and supplement with Human Keratinocyte Growth Supplement (HKGS) at 1% v/v concentration. When a 500 ml of Epilife® medium was supplemented with HKGS the final concentration of the components in the supplement medium were: bovine pituitary extract (BPE) 0.2% v/v, bovine insulin 5 μg/ml, hydrocortisone 0.18 μg/ml, bovine transferrin 5 μg/ml and human epidermal growth factor 0.2 ng/ml. The medium was replaced regularly three times a week until the flask reaches 90% confluence (Fig. 2). The cells were moved from the flasks by incubating the monolayers with 0.5% trypsin for 2–3 min at 37 °C. The cells were collected into centrifuge tubes, and then centrifuged at 1000 rpm for 4 min and the pellets were resuspended in Epilife® medium. Cells used for this study were in third and fourth passage in late sub confluency.
HEKns cells were seeded at a density of 1 × 10^5 cells/cm^2 on permeable supports (Transwell® Costar, 0.4 μm pore size) as shown in Fig. 3. […] The integrity of the HEKns cell monolayer in the transwell plates was determined by measuring Trans Epithelial Electrical Resistance (TEER). […]

The subject of data set [2] is HEKn cells. Also noted: method as in PMID 32615127. The conditions noted are these: gartanin 9 μM, compound alone; previous experiments ref 16; cited from earlier work.
Data set [3] relates to HEKn cells. The experiment in a line: Papp, A-B from the previous permeation experiments. The data set is classed as in vitro ADME, human. As to conditions: experimental Papp, A-B versus S+MDCK predicted Papp; previous experiments ref 16.
The next data set concerns CYP2C family of enzymes. Also noted: method as in Foti et al. [20]. As to conditions: ref Foti et al. [20]; cited from earlier work.
The test system of the next data set is CYP1A2. Also noted: method as in Foti et al. [20]. The conditions noted are these: ref Foti et al. [20]; cited from earlier work.

Each structure is given as a SMILES string. “Also recorded” adds a separate entry of the source.

For the compound `CC(C)=CCc1c(O)c(CC=C(C)C)c2oc3c(O)ccc(O)c3c(=O)c2c1O` [Gartanin], the “Metabolism identified by LC-MS/MS” value in the data set on HEKn cells [1] is “might be conjugated to sulfated derivatives; also recorded: not found to be metabolized in phase I metabolism”. Besides, the “Papp, A-B” value in the data set on HEKn cells [2] is “could not be detected”.
With `COc1c(O)cc2oc3cc(O)c(CC=C(C)C)c(O)c3c(=O)c2c1CC=C(C)C` [α-mangostin], the “Papp, A-B from experiments lower than predicted Papp” value in the data set on HEKn cells [3] was 3 fold. Also, the “Inhibition of CYP” value with CYP2C family of enzymes was “potent inhibited”. The “Metabolizing CYP isoform” value with CYP1A2 is recorded as “metabolized primarily by CYP1A2”. Further, the “Metabolism identified by LC-MS/MS” value with HEKn cells [1] is recorded as “might be metabolized via tri-oxidation process”.
